Active and inactive are the calls of the source.

Our source for the inhibition, IC50 and Activity values is ChEMBL document CHEMBL5537181 (J Med Chem, 2024).

For assay [1], the target named is Neuronal acetylcholine receptor; alpha3/beta2 (Homo sapiens) (UniProt P17787+P32297). Nature of the assay: Antagonist activity at human alpha3beta2 nAChR expressed in acetylcholine-induced Xenopus laevis oocytes assessed as inhibition of acetylcholine-induced current at 30 nM by two electrode voltage-clamp assay. It is filed as cell-based. The note with it: Oocyte. (In general: Two-electrode voltage clamp holds a large cell at a set potential and records current.)

Assay [2] concerns the target Nicotinic acetylcholine receptor alpha9/alpha10 (Rattus norvegicus, UniProt P43144+Q9JLB5). As to the kind of experiment: Antagonist activity at rat wild type alpha9alpha10 nAChR expressed in acetylcholine-induced Xenopus laevis oocytes assessed as inhibition of acetylcholine-induced current at 1:1 ratio of protein by two electrode voltage-clamp assay. The format is cell-based, Oocyte.

Assay [3] deals with Neuronal acetylcholine receptor subunit alpha-7 (Rattus norvegicus) (UniProt Q05941). As to the kind of experiment: Antagonist activity at rat alpha7 nAChR expressed in acetylcholine-induced Xenopus laevis oocytes assessed as inhibition of acetylcholine-induced current at 30 nM by two electrode voltage-clamp assay relative to control. It is filed as cell-based. The note with it: Oocyte.
Neuronal acetylcholine receptor subunit alpha-7 (Rattus norvegicus), sequence (Q05941 whole entry): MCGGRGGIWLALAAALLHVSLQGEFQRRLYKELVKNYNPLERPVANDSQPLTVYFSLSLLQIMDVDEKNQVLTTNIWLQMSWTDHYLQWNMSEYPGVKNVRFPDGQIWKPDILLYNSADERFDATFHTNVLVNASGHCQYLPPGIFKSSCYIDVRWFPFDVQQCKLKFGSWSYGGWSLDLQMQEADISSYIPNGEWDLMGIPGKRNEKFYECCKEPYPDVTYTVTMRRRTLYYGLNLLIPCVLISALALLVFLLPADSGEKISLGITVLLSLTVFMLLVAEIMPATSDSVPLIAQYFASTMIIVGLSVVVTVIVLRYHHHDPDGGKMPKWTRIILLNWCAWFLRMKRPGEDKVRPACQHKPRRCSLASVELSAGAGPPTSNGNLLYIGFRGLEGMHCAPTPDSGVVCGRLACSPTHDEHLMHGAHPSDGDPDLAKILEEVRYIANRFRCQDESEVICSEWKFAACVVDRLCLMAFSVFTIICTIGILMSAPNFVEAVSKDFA

The nature of assay [4]: Antagonist activity at human alpha9alpha10G152N mutant nAChR expressed in acetylcholine-induced Xenopus laevis oocytes assessed as inhibition of acetylcholine-induced current at 1:1 ratio of protein by two electrode voltage-clamp assay. The note with it: Oocyte. The format is cell-based.
In assay [5] the test system is Rattus norvegicus. As to the kind of experiment: Analgesic activity in Chronic constriction injury rat model assessed as increase in paw withdrawal threshold at 250 microg/kg,IM administration and measured for 0.5 to 48 hrs. It is filed as functional, organism-based. The settings on record: dose 250.0 µg/kg, time 0.5-48 hrs.
Assay [6] concerns the target T1, Neuronal acetylcholine receptor; alpha9/alpha10 (Homo sapiens) (UniProt Q9UGM1+Q9GZZ6). As to the kind of experiment: Antagonist activity at human alpha9alpha10 nAChR expressed in acetylcholine-induced Xenopus laevis oocytes assessed as inhibition of acetylcholine-induced current at 30 nM at -120 mV holding potential by two electrode voltage-clamp assay. It is filed as cell-based. The note with it: Oocyte, filed as antagonist.

Assay [7] has as its target T2, Neuronal acetylcholine receptor; alpha9/alpha10 (Homo sapiens, UniProt Q9GZZ6+Q9UGM1). As to the kind of experiment: Antagonist activity at human wild type alpha9alpha10 nAChR expressed in acetylcholine-induced Xenopus laevis oocytes assessed as inhibition of acetylcholine-induced current at 1:3 ratio of protein by two electrode voltage-clamp assay. The format is cell-based, Oocyte.

In assay [8] the target is T2, Neuronal acetylcholine receptor; alpha9/alpha10. Nature of the assay: Antagonist activity at human wild type alpha9alpha10 nAChR expressed in acetylcholine-induced Xenopus laevis oocytes assessed as inhibition of acetylcholine-induced current at 1:1 ratio of protein by two electrode voltage-clamp assay. It is filed as cell-based, Oocyte.
For assay [9], the target named is T1, Neuronal acetylcholine receptor; alpha9/alpha10 (Homo sapiens). As to the kind of experiment: Antagonist activity at human alpha9alpha10 nAChR expressed in acetylcholine-induced Xenopus laevis oocytes assessed as inhibition of acetylcholine-induced current at 30 nM at -80 mV holding potential by two electrode voltage-clamp assay. The format is cell-based. The note with it: Oocyte, filed as antagonist.

The target in assay [10] is Voltage-dependent N-type calcium channel subunit alpha-1B (Homo sapiens, UniProt Q00975). Nature of the assay: Inhibition of human Cav2.2 channel transfected in HEK293T cells assessed as inhibition of Cav2.2-mediated Ba2+ current measured for 3 to 5 days by whole-cell patch clamp assay. The format is cell-based. For orientation: In patch-clamp work, channel activity is measured electrically.
Voltage-dependent N-type calcium channel subunit alpha-1B, sequence (Q00975 whole entry): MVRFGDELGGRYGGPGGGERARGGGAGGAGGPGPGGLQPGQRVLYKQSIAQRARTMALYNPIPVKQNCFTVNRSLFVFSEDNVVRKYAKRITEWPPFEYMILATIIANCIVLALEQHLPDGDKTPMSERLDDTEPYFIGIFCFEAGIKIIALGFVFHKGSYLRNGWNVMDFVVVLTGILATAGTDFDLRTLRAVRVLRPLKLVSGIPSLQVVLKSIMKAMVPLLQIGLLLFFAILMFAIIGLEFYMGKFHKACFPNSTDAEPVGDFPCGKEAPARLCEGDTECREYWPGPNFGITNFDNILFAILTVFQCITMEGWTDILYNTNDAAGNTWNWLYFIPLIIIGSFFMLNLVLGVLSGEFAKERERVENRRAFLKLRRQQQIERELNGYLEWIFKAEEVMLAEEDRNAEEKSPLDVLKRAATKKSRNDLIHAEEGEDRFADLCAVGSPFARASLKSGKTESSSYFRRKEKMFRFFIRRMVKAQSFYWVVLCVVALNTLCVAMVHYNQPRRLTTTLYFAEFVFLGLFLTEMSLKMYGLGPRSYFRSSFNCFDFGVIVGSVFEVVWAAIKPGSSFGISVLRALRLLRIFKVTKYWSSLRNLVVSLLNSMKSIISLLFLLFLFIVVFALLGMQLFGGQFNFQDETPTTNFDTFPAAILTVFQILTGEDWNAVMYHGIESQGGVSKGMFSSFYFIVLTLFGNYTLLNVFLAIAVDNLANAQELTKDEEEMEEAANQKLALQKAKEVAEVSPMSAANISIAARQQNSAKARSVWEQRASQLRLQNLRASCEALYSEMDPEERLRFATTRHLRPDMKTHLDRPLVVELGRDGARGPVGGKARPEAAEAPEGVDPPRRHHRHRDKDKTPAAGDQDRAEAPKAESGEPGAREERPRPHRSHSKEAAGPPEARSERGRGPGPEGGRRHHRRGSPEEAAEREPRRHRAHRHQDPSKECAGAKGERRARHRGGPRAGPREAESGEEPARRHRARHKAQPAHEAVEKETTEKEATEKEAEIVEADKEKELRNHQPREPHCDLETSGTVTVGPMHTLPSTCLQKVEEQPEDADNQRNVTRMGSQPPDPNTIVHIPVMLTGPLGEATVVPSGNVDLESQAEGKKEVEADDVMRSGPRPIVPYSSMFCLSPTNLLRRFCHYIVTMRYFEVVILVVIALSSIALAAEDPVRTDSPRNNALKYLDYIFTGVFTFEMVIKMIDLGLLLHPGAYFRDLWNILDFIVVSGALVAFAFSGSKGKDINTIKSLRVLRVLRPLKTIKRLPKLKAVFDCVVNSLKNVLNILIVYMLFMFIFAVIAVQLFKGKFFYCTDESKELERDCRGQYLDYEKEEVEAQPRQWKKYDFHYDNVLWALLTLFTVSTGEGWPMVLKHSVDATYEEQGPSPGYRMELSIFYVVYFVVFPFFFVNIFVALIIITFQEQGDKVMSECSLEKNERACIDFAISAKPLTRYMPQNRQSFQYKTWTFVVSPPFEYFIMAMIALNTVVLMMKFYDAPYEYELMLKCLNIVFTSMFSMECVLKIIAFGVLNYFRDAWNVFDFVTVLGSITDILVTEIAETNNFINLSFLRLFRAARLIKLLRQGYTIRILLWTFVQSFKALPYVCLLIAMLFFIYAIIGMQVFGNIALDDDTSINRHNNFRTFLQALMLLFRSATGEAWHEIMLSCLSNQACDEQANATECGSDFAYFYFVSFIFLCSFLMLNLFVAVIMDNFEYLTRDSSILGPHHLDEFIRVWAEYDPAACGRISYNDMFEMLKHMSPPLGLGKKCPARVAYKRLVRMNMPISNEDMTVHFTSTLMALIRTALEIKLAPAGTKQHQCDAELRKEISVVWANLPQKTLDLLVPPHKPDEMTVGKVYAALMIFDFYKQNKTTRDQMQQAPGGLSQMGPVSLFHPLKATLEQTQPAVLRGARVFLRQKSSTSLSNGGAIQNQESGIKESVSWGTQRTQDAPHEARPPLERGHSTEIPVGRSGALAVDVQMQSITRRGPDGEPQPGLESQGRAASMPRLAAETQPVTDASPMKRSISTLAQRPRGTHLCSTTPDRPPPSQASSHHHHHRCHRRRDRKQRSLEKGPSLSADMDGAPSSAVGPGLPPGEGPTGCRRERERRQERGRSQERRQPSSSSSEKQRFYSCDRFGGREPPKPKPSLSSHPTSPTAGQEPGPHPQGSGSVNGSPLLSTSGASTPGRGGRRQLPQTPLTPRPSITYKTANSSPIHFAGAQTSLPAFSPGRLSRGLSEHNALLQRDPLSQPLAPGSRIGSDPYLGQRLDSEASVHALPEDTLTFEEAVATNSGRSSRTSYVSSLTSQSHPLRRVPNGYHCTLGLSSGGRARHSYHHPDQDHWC

The target in assay [11] is T3, Potassium/sodium hyperpolarization-activated cyclic nucleotide-gated channel 2 (Homo sapiens) (UniProt Q9UL51).
T3 sequence (whole entry): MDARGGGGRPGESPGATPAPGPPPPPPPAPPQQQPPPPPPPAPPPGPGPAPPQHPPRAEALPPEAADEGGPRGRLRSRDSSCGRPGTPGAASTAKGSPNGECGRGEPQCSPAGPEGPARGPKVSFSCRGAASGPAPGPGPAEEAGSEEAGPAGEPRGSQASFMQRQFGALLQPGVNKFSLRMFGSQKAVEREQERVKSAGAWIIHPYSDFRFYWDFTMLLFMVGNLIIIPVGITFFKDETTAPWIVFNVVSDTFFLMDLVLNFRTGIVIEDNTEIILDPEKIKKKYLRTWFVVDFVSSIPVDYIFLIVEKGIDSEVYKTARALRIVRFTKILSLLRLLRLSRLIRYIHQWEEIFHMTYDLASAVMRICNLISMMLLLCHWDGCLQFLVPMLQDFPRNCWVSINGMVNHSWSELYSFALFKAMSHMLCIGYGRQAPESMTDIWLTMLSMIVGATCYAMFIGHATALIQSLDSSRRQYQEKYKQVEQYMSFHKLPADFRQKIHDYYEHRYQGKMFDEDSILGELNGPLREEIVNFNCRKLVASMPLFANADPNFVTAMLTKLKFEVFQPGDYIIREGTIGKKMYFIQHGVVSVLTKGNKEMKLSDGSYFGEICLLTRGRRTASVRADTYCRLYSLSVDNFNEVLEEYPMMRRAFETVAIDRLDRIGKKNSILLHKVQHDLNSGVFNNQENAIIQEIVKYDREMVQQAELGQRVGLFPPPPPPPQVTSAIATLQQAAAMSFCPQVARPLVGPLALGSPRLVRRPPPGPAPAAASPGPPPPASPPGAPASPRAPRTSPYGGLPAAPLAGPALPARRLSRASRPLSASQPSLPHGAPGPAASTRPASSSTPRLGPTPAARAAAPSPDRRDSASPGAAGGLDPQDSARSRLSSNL
Nature of the assay: Inhibition of HCN2 (unknown origin) at 1 uM.

In assay [12] the target is Neuronal acetylcholine receptor subunit alpha-7 (Rattus norvegicus) (UniProt Q05941). Nature of the assay: Antagonist activity at rat alpha7 nAChR expressed in acetylcholine-induced Xenopus laevis oocytes assessed as inhibition of acetylcholine-induced current at 100 nM by two electrode voltage-clamp assay relative to control. The format is cell-based. The note with it: Oocyte.

Assay [13] concerns Rattus norvegicus. As to the kind of experiment: Analgesic activity in Chronic constriction injury rat model assessed as decrease in hyperalgesia at 0.25 to 25 microg/kg,IM administrated every 2 hrs for 14 days. The note with it: dose 0.25-25 µg/kg, time 14.0 day. It is filed as functional, organism-based.

T2 sequence (Q9UGM1 whole entry): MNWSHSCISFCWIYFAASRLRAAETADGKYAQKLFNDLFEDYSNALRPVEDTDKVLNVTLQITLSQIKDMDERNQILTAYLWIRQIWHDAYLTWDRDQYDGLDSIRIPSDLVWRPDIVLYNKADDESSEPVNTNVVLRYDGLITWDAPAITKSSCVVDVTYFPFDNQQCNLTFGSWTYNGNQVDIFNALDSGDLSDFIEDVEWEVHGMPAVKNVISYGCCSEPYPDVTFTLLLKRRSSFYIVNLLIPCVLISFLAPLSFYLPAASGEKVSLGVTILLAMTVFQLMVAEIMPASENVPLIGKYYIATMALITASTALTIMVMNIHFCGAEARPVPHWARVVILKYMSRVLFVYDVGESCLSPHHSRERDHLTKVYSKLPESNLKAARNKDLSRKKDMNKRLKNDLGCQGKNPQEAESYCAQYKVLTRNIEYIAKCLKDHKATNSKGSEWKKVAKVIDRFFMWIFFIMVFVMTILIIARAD
T2 sequence (Q9GZZ6 whole entry): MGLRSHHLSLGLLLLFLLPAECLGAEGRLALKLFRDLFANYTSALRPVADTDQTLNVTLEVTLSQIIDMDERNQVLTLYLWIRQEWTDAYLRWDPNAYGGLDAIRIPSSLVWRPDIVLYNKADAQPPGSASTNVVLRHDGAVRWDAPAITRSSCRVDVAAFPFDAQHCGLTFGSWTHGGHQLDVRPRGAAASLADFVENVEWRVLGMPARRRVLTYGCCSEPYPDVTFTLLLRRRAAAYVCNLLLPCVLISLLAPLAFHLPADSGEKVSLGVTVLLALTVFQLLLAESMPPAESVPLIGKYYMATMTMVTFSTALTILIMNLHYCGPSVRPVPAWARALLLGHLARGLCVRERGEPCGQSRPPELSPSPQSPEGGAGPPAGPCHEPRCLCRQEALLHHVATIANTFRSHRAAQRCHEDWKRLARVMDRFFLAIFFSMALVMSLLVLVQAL
Nicotinic acetylcholine receptor alpha9/alpha10, sequence (P43144 whole entry): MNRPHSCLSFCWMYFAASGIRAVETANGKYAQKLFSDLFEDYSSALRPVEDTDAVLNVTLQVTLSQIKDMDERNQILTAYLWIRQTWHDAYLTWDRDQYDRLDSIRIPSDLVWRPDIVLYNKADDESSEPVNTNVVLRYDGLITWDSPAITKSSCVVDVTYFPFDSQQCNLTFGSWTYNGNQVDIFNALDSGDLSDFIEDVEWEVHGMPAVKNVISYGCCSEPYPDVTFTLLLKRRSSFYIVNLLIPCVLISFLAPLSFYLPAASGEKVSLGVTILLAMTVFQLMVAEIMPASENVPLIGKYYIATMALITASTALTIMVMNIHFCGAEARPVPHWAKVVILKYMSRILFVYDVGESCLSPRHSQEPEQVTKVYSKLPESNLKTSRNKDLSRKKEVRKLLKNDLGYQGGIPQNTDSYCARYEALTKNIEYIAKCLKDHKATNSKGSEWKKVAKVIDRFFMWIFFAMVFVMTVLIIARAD
Nicotinic acetylcholine receptor alpha9/alpha10, sequence (Q9JLB5 whole entry): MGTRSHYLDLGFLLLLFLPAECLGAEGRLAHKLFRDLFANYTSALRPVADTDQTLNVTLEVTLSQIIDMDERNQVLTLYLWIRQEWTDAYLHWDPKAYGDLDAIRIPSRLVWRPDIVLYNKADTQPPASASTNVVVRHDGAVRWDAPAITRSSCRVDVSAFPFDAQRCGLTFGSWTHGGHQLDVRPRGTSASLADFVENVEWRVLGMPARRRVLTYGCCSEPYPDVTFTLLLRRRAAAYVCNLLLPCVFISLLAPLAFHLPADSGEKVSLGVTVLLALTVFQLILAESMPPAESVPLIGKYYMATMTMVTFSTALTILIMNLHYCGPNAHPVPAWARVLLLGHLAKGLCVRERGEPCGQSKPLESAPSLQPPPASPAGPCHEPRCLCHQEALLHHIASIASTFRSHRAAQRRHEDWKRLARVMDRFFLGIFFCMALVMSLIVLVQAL

With `CC[C@H](C)[C@H](NC(=O)[C@H](CCCNC(=N)N)NC(=O)[C@H](CCCNC(=N)N)NC(=O)[C@H](Cc1ccc(O)cc1)NC(=O)[C@H](CCCNC(=N)N)NC(=O)[C@H](CCCNC(=N)N)NC(=O)[C@H](CCCNC(=N)N)NC(=O)[C@H](CCCNC(=N)N)NC(=O)[C@H](CC(=O)O)NC(=O)[C@H](Cc1ccc(O)cc1)NC(=O)[C@@H]1CCCN1C(=O)[C@H](CO)NC(=O)[C@H](CCCNC(=N)N)NC(=O)[C@H](Cc1ccc(O)cc1)NC(=O)[C@H](CCCNC(=N)N)NC(=O)CN)C(=O)N[C@H](C(=O)N[C@@H](CC(=O)O)C(N)=O)[C@@H](C)O`, the inhibition result in assay [1] and in assay [11] was “inactive” in each case. The IC50 in assay [2] is 18.3 nM; in assay [4] it was 25.2 nM; in [7], 5 nM; in [8], 25.7 nM; in assay [10] it was 4.6 nM. Further, the inhibition in [3] worked out at 10%; in [12] it was 35%. Further, the outcome in the assay with Rattus norvegicus [5] and with Rattus norvegicus [13] was Active. For the same compound, the inhibition result in assay [6] and in assay [9] was “Active” each time.

A word on the inhibition: it is the change of the read-out against control, counted positive when it falls. The term IC50 denotes the concentration needed to halve the response being measured.
